Consider eleven compounds from US12612416B2, “Modulators of cystic fibrosis transmembrane conductance regulator” (VERTEX PHARMACEUTICALS INCORPORATED, priority 2020, dated 2026).

Structures are written as SMILES. Read-outs that look alike come from different tables or passages of the source. Some results are limits rather than exact numbers.

The conditions of data set [1]: amide bond, DMF.
For data set [2], the target named is CFTR-mediated chloride transport in human intestinal epithelial enteroid cells (Homo sapiens, UniProt P13569). As to the kind of experiment: Membrane potential dye, Enteroid Assay A. The format is cell-based. Conditions: for Ent. A Max Activity: % of chloride transport of triple combination control: 3 μM (S)-N-((6-aminopyridin-2-yl)sulfonyl)-6-(3-fluoro-5-isobutoxyphenyl)-2-(2,2,4-trimethylpyrrolidin-1-yl)nicotinamide, 3 μM tezacaftor, 300 nM acute ivacaftor. How it is done: Base medium (ADF+++) consisted of Advanced DMEM/Ham's F12, 2 mM Glutamax, 10 mM HEPES, […] penicillin/streptomycin.
CFTR-mediated chloride transport in human intestinal epithelial enteroid cells, sequence (P13569 with tags, fused parts or gaps DEL508-508): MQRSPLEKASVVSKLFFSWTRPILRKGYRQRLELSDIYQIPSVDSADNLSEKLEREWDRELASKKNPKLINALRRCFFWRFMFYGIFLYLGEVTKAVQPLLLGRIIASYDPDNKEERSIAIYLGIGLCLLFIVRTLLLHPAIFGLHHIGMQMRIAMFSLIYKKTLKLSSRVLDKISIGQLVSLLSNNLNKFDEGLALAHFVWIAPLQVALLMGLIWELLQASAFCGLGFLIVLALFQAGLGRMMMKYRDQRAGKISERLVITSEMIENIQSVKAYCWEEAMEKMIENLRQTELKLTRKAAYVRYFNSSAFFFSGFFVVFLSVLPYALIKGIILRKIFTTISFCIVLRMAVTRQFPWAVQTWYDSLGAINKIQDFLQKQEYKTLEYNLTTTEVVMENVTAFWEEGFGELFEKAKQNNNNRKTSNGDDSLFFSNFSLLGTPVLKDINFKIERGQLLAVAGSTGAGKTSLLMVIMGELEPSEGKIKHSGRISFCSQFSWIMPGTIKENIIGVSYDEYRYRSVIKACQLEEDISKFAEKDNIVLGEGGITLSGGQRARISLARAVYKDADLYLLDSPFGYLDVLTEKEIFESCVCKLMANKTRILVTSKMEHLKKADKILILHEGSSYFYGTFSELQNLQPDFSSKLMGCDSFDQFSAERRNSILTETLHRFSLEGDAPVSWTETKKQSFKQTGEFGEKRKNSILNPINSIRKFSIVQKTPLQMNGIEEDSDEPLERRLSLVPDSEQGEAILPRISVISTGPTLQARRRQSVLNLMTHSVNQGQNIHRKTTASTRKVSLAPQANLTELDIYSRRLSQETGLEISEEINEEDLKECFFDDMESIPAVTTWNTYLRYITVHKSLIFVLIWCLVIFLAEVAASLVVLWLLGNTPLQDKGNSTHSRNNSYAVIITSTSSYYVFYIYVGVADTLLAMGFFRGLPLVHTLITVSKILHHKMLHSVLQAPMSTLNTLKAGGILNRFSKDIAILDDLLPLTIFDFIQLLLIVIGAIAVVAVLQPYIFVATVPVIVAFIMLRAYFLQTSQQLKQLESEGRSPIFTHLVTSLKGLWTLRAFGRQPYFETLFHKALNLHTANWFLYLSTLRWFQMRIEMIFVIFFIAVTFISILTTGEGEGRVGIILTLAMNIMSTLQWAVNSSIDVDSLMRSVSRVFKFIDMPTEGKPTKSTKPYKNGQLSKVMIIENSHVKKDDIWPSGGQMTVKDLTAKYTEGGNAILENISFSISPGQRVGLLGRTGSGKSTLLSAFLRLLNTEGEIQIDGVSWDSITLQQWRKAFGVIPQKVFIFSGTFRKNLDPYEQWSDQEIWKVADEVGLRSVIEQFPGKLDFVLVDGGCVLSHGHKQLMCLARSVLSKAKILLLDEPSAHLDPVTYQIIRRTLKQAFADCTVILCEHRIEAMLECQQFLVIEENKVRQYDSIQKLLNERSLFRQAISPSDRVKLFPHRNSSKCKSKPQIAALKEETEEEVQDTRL
Intestinal enteroid maintenance medium (IEMM) consisted of ADF+++, 1×B27 supplement, 1×N2 supplement, 1.25 mM N-acetyl cysteine, 10 mM Nicotinamide, 50 ng/mL hEGF, 10 nM Gastrin, 1 μg/mL hR-spondin-1, 100 ng/mL hNoggin, TGF-b type 1 inhibitor A-83-01, 100 μg/mL Primocin, 10 μM P38 MAPK inhibitor SB202190.
Bath 1 Buffer consisted of 1 mM MgCl2, 160 mM NaCl, 4.5 mM KCl, 10 mM HEPES, 10 mM Glucose, 2 mM CaCl2).
Chloride Free Buffer consisted of 1 mM Magnesium Gluconate, 2 mM Calcium Gluconate, 4.5 mM Potassium Gluconate, 160 mM Sodium Gluconate, 10 mM HEPES, 10 mM Glucose.
BathI Dye Solution consisted of Bath 1 Buffer, 0.04% Pluronic F127, 20 μM Methyl Oxonol, 30 μM CaCCinh-A01, 30 μM Chicago Sky Blue.
Chloride Free Dye Solution consisted of Chloride Free Buffer, 0.04% Pluronic F127, 20 μM Methyl Oxonol, 30 μM CaCCinh-A01, 30 μM Chicago Sky Blue.
Chloride Free Dye Stimulation Solution consisted of Chloride Free Dye Solution, 10 μM forskolin, 100 μM IBMX, and 300 nM Compound III.
Human intestinal epithelial enteroid cells were obtained from the Hubrecht Institute for Developmental Biology and Stem Cell Research, Utrecht, The Netherlands and expanded in T-Flasks as previously described (Dekkers J F, Wiegerinck C L, de Jonge H R, Bronsveld I, Janssens H M, de Winter-de Groot K M, Brandsma A M, de Jong N W M, Bijvelds M J C, Scholte B J, Nieuwenhuis E E S, van den Brink S, Clevers H, van der Ent C K, Middendorp S and M Beekman J M. A functional CFTR assay using primary cystic fibrosis intestinal organoids. Nat Med. 2013 July; 19(7):939-45.).
Cells were recovered in cell recovery solution, collected by centrifugation at 650 rpm for 5 minutes at 4° C., resuspended in TrypLE and incubated for 5 minutes at 37° C. Cells were then collected by centrifugation at 650 rpm for 5 minutes at 4° C. and resuspended in IEMM containing 10 μM ROCK inhibitor (RI). The cell suspension was passed through a 40 μm cell strainer and resuspended at 1×10^6 cells/mL in IEMM containing 10 μM RI. Cells were seeded at 5000 cells/well into multi-well plates and incubated for overnight at 37° C., 95% humidity and 5% CO2 prior to assay.
Enteroid cells were incubated with test compound in IEMM for 18-24 hours at 37° C., 95% humidity and 5% C02. […] Briefly, cells were washed 5 times in Bath 1 Buffer. Bath 1 Dye Solution was added, and the cells were incubated for 25 minutes at room temperature. Following dye incubation, cells were washed 3 times in Chloride Free Dye Solution. Chloride transport was initiated by addition of Chloride Free Dye Stimulation Solution and the fluorescence signal was read for 15 minutes. […] Chloride transport was then expressed as a percentage of the chloride transport following treatment with 3 μM (S)—N-((6-aminopyridin-2-yl)sulfonyl)-6-(3-fluoro-5-isobutoxyphenyl)-2-(2,2,4-trimethylpyrrolidin-1-yl)nicotinamide, 3 μM (R)-1-(2,2-difluorobenzo[d][1,3]dioxol-5-yl)-N-(1-(2,3-dihydroxypropyl)-6-fluoro-2-(1-hydroxy-2-methylpropan-2-yl)-1H-indol-5-yl)cyclopropanecarboxamide and 300 nM acute N-[2,4-bis(1,1-dimethylethyl)-5-hydroxyphenyl]-1,4-dihydro-4-oxoquinoline-3-carboxamide triple combination control (% Activity).

Data set [3] deals with T1, CFTR-mediated short-circuit current in F508del/MF-HBE cells (Homo sapiens, UniProt P13569, DEL508-508).
T1 construct: endogenous in cells; host or cells: primary human bronchial epithelial cells from CF subjects (F508del/MF)
T1 sequence (P13569 with tags, fused parts or gaps DEL508-508): as above
Briefly: HBE assay: Ussing chamber assay of CFTR-mediated short-circuit currents. Conditions: 20% human serum; for HBE Max. activity / EC50: F508del/MF-HBE; for HBE Max. activity: in combination with 1 μM Ivacaftor, compared to known Vertex corrector with 18 μM Tezacaftor and 1 μM Ivacaftor; for EC50: range of concentrations in combination with 1 μM Ivacaftor; for EC50 / HBE Activity at 10 μM: 18-24 hours; for HBE Activity at 10 μM: single fixed concentration of 10 μM in combination with 1 μM Ivacaftor. The format is cell-based. How it is done: Ussing chamber experiments were performed using human bronchial epithelial (HBE) cells derived from CF subjects heterozygous for F508del and a minimal function CFTR mutation (F508del/MF-HBE) and cultured as previously described (Neuberger T, Burton B, Clark H, Van Goor F Methods Mol Biol 2011:741:39-54). After four days the apical media was removed, and the cells were grown at an air liquid interface for >14 days prior to use.
To isolate the CFTR-mediated short-circuit (ISC) current, F508del/MF-HBE grown on Costar® Snapwell™ cell culture inserts were mounted in an Ussing chamber and the transepithelial ISC was measured under voltage-clamp recording conditions (Vhold=0 mV) at 37° C. The basolateral solution contained (in mM) 145 NaCl, 0.83K2HPO4, 3.3 KH2PO4, 1.2 MgCl2, 1.2 CaCl2), 10 Glucose, 10 HEPES (pH adjusted to 7.4 with NaOH) and the apical solution contained (in mM) 145 NaGluconate, 1.2 MgCl2, 1.2 CaCl2), 10 glucose, 10 HEPES (pH adjusted to 7.4 with NaOH) and 30 μM amiloride to block the epithelial sodium channel. Forskolin (20 μM) was added to the apical surface to activate CFTR, followed by apical addition of a CFTR inhibitor cocktail consisting of BPO, GlyH-101, and CFTR inhibitor 172 (each at 20 μM final assay concentration) to specifically isolate CFTR currents. The CFTR-mediated ISC (μA/cm^2) for each condition was determined from the peak forskolin response to the steady-state current following inhibition.
The activity of the CFTR corrector compounds on the CFTR-mediated ISC was determined in Ussing chamber studies as described above. The F508del/MF-HBE cell cultures were either incubated with the corrector compounds at a range of concentrations in combination with 1 μM Ivacaftor or were incubated with the corrector compounds at a single fixed concentration of 10 μM in combination with 1 μM Ivacaftor for 18-24 hours at 37° C. and in the presence of 20% human serum. The concentration of corrector compounds with 1 μM Ivacaftor during the 18-24 hours incubations was kept constant throughout the Ussing chamber measurement of the CFTR-mediated ISC to ensure compounds were present throughout the entire experiment.

The compound `Cc1cccc(C)c1-c1cc2nc(n1)NS(=O)(=O)c1cccc(c1)C(=O)NCCN2CC(C)C` [Compound 39, 6-(2,6-Dimethylphenyl)-9-isobutyl-2,2-dioxo-2 λ6-thia-3,5,9,12,19-pentazatricyclo[12.3.1.14,8]nonadeca-1(18),4(19),5,7,14,16-hexaen-13-one] had a ring closure, yield after HPLC in data set [1] (from Cc1cccc(C)c1-c1cc(N(CCN)CC(C)C)nc(NS(=O)(=O)c2cccc(C(=O)O)c2)n1, 13-membered ring, HATU/Et3N, 25.3 mM, 25.0 °C, 0.5 h) of 35%. Further, the “Ent. A Max Activity” value in data set [2] is recorded as “+ (+ is <30%)”.

In general, EC50 refers to the concentration giving half of the maximal effect. With `Cc1cccc(C)c1-c1cc2nc(n1)NS(=O)(=O)c1cccc(c1)C(=O)N(Cc1ncc(OC(C)C)cn1)[C@H](CC(C)(C)C)CC2` [Compound 62, (11S)-6-(2,6-Dimethylphenyl)-11-(2,2-dimethylpropyl)-12-[(5-isopropoxypyrimidin-2-yl)methyl]-2,2-dioxo-2 λ6-thia-3,5,12,19-tetrazatricyclo[12.3.1.14,8]nonadeca-1(18),4(19),5,7,14,16-hexaen-13-one], in data set [3], the “HBE Max. activity” value was “+++ (+++ is >60%)” and the concentration for a half-maximal effect (EC50) is less than 1 µM. Besides, the ring closure, yield after HPLC in data set [1] (from Cc1cccc(C)c1-c1cc(CC[C@@H](CC(C)(C)C)NCc2ncc(OC(C)C)cn2)nc(NS(=O)(=O)c2cccc(C(=O)O)c2)n1, 13-membered ring, CDMT/NMM, 47.5 mM, 18.0 h) came to 79%.

In turn, `Cc1cccc(C)c1-c1cc2nc(n1)NS(=O)(=O)c1cccc(c1)C(=O)NCC1(CCCCC1)CN2` [Compound 40, 6-(2,6-Dimethylphenyl)-2,2-dioxo-spiro[2 λ6-thia-3,5,9,13,20-pentazatricyclo[13.3.1.14,8]icosa-1(19),4(20),5,7,15,17-hexaene-11,1′-cyclohexane]-14-one] gave a ring closure, yield after HPLC in data set [1] (from Cc1cccc(C)c1-c1cc(NCC2(CN)CCCCC2)nc(NS(=O)(=O)c2cccc(C(=O)O)c2)n1, 14-membered ring, HATU/Et3N, 58.9 mM, 0.5 h) of 33%. Further, in data set [2], the “Ent. A Max Activity” value was “+ (+ is <30%)”. Besides, the EC50 in data set [2] (enteroid cells, 18-24 hours incubation, acute 10 μM forskolin and 300 nM ivacaftor, read-out: Ent. A EC50) fell in the range of 1 to 3 µM.

As for `Cc1cccc(C)c1-c1cc2nc(n1)NS(=O)(=O)c1cccc(c1)C(=O)N(C1CC3(CC3)C1)[C@H](CC(C)(C)C)CC2` [Compound 63], the “HBE Activity at 10 μM” value in data set [3] was “+++ (+++ is >60%)”.

In data set [1] (from Cc1cccc(C)c1-c1cc(N(Cc2ccccc2)C[C@@H](C)N)nc(NS(=O)(=O)c2cccc(C(=O)O)c2)n1, 13-membered ring, HATU/Et3N, 44.7 mM, 25.0 °C, 16.0 h), `Cc1cccc(C)c1-c1cc2nc(n1)NS(=O)(=O)c1cccc(c1)C(=O)N[C@H](C)CN2Cc1ccccc1` [Compound 38, (11R)-9-benzyl-6-(2,6-dimethylphenyl)-11-methyl-2,2-dioxo-2λ6-thia-3,5,9,12,19-pentazatricyclo[12.3.1.14,8]nonadeca-1(18),4(19),5,7,14,16-hexaen-13-one] came in with a ring closure, yield after HPLC of 23%. The “Ent. A Max Activity” value in data set [2] is listed as “+ (+ is <30%)”.

In the case of `Cc1cccc(C)c1-c1cc2nc(n1)NS(=O)(=O)c1cccc(c1)C(=O)N(Cc1ncc(OC(C)C)cn1)[C@H](CC(C)C)CC2` [Compound 58], in data set [3], the “HBE Max. activity” value is given as “+++ (+++ is >60%)” and the half-maximal effective concentration (EC50) is less than 1 µM.

Regarding `Cc1cccc(C)c1-c1cc2nc(n1)NS(=O)(=O)c1cccc(c1)C(=O)N(Cc1ncc(OC3CCC3)cn1)[C@H](CC(C)C)CC2` [Compound 59], in data set [3], the “HBE Max. activity” value is on record as “+++ (+++ is >60%)” and the EC50 was less than 1 µM.

For `Cc1cccc(C)c1-c1cc2nc(n1)NS(=O)(=O)c1cccc(c1)C(=O)N([C@H]1CC3(C1)C[C@H](C(C)(C)O)C3)[C@H](CC(C)(C)C)CC2` (single isomer, unassigned) [Compound 65], the “HBE Activity at 10 μM” value in data set [3] is “+++ (+++ is >60%)”.

Take `Cc1cccc(C)c1-c1cc2nc(n1)NS(=O)(=O)c1cccc(c1)C(=O)NC(CC(C)C)CN2` (stereo not drawn) [Compound 37, 6-(2,6-Dimethylphenyl)-11-isobutyl-2,2-dioxo-2 λ6-thia-3,5,9,12,19-pentazatricyclo[12.3.1.14,8]nonadeca-1(18),4(19),5,7,14,16-hexaen-13-one]: the ring closure, yield after HPLC in data set [1] (from Cc1cccc(C)c1-c1cc(NCC(N)CC(C)C)nc(NS(=O)(=O)c2cccc(C(=O)O)c2)n1, 13-membered ring, HATU/Et3N, 50.6 mM, 0.5 h) worked out at 67%. In addition, in data set [2], the “Ent. A Max Activity” value is “+ (+ is <30%)”.

Regarding `Cc1cccc(C)c1-c1cc2nc(n1)NS(=O)(=O)c1cccc(c1)C(=O)N(Cc1ncc(OC3CCC3)cn1)[C@H](CC(C)(C)C)CC2` [Compound 64, (11S)-12-[[5-(Cyclobutoxy)pyrimidin-2-yl]methyl]-6-(2,6-dimethylphenyl)-11-(2,2-dimethylpropyl)-2,2-dioxo-2λ6-thia-3,5,12,19-tetrazatricyclo[12.3.1.14,8]nonadeca-1(18),4(19),5,7,14,16-hexaen-13-one], the “HBE Activity at 10 μM” value in data set [3] is recorded as “+++ (+++ is >60%)”. In data set [1] (from Cc1cccc(C)c1-c1cc(CC[C@@H](CC(C)(C)C)NCc2ncc(OC3CCC3)cn2)nc(NS(=O)(=O)c2cccc(C(=O)O)c2)n1, 13-membered ring, CDMT/NMM, 44.1 mM, 17.0 h), this compound registered a ring closure, yield after HPLC of 73%.

For `Cc1cccc(C)c1-c1cc2nc(n1)NS(=O)(=O)c1cccc(c1)C(=O)N([C@H]1CC3(C1)C[C@H](C(C)(C)O)C3)[C@H](CC(C)(C)C)CC2` (single isomer, unassigned) [Compound 66], in data set [3], the “HBE Activity at 10 μM” value is reported as “+++ (+++ is >60%)”.
